Reference: US20090062267A1, “L-ALANINE DERIVATIVES AS a5beta1 ANTAGONISTS” (ASTRAZENECA AB, priority 2007, published 2009)

Biological target: recombinant human α5β1 (Homo sapiens, UniProt P05556+P08648)
Experiment: In Vitro Binding Assay (a): inhibition of binding of α5β1 integrin to a fragment of human fibronectin (Fn9-10), Origen electrochemiluminescence
Conditions: geometric mean where tested more than once
Source text: The assay determined the ability of compounds to inhibit binding of α5β1 integrin to a cognate ligand, a fragment of human fibronectin. The assay used Origen technology (IGEN International) to measure the compound activity. Briefly, α5β1 integrin was coated onto epoxy-paramagnetic beads (Dynal Biotech UK, Bromborough, Wirral, CH62 3QL, UK, Catalogue No 140.11) and biotinylated-fibronectin ligand was coupled to strepatividin labeled Tag-NHS-Ester (BioVeris Corporation, Witney, Oxfordshire, OX28 4GE, UK, Catalogue No 110034). The ruthenium-labeled tag emits an electrochemiluminescence signal upon stimulation which is detected by the Origen reader. Thus, interaction of integrin and ligand causes association of bead and tag, and the resulting electrochemiluminescence signal reflects the level of integrin interaction with fibronectin.
20 μg of recombinant human α5β1 was coated onto 4×10(7) epoxy-paramagnetic beads according to manufacturers instructions at 4° C. for 24 hours. Integrin coating and corresponding activity was subsequently measured for each batch but typically, 25 ng of coated protein was used per assay well.
A DNA fragment encoding the domains 9-10 (amino-acids 1325-1509) of human fibronectin (Swiss-Prot Accession No. P02751) was isolated from cDNA libraries using standard molecular biology and PCR cloning techniques. The cDNA fragment was sub-cloned into a pT73.3 expression vector containing a GST-epitope tag (developed at AstraZeneca; Bagnall et al., Protein Expression and Purification, 2003, 27: 1-11). Following expression in E. coli, the expressed protein, termed Fn9-10, was purified using the GST-tag using standard purification techniques. The recombinant Fn9-10 was subsequently biotinylated using a EZ-link Sulfo-NHS-LC-Biotinylation kit (Perbio Science UK Ltd., Cramlington, Northumberland, NE23 1WA, UK, Catalogue No. 21335) and made to give a final concentration of approximately 1 mg/ml. Tag-NHS-Ester was labeled with streptavidin by incubation at room temperature following manufacturers instructions and buffer-exchanged into PBS to give a concentration of 0.5 mg/ml. Immediately prior to the assay, biotinylated-Fn9-10 and Streptavidin-labeled Tag were diluted in Assay Buffer to give a final concentrations of 0.6 ug/ml and 1.5 ug/ml respectively. The Fn9-10 and Tag solutions were then mixed together in equal volumes and incubated on ice for at least 30 minutes prior to the assay.
Aliquots (20 μl) of each compound dilution were placed into each well of a 384-well round bottomed polypropylene plate (Matrix Technologies, Wilmslow, Cheshire, SK9 3LP, Catalogue No. 4340 384).
For the assay, 25 ng (20 ul) of a5b1-bead suspension and 40 μl of the Fn9-10/Tag pre-incubated solution were added to each well containing 20 μl of compound or control solution. Assay plates were then incubated at room temperature for a minimum of 6 hours before being analysed on an Origen plate reader. The minimum value was subtracted from all values, and the signal was plotted against compound concentration to generate IC50 data.
The data in the above table was generated in an assay substantially as described above in relation to Binding Assay (a). Some of the compounds shown in the table were tested more than once in the assay. For those compounds the IC50 value shown is the geometric mean of the measured IC50 values.

recombinant human α5β1, sequence (P08648 42-1049): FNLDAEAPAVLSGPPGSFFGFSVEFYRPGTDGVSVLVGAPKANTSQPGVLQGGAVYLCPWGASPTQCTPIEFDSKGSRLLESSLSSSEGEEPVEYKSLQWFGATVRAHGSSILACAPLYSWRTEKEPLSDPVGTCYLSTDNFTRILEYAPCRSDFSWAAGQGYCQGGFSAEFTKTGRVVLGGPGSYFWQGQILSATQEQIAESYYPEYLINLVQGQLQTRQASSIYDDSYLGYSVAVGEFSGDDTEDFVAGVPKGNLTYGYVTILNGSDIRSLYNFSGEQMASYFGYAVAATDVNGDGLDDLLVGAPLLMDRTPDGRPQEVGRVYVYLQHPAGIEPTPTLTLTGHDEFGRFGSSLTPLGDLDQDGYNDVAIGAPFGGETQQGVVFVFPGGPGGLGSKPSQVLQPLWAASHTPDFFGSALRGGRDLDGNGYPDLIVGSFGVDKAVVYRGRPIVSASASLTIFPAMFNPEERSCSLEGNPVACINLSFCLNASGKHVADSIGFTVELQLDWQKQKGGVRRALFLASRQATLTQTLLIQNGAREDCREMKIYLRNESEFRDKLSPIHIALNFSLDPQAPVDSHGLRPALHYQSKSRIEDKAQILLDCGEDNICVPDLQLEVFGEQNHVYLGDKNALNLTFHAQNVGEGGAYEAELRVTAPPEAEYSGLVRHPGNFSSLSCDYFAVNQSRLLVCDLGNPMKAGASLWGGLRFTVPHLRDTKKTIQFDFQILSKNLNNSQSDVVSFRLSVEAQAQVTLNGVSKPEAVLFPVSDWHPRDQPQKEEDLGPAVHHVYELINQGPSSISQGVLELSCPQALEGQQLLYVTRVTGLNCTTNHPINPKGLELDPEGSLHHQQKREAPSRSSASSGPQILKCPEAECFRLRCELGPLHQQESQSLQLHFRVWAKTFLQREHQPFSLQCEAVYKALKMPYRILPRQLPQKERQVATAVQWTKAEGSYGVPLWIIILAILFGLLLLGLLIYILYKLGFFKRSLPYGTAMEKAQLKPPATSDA
recombinant human α5β1, sequence (P05556 21-798): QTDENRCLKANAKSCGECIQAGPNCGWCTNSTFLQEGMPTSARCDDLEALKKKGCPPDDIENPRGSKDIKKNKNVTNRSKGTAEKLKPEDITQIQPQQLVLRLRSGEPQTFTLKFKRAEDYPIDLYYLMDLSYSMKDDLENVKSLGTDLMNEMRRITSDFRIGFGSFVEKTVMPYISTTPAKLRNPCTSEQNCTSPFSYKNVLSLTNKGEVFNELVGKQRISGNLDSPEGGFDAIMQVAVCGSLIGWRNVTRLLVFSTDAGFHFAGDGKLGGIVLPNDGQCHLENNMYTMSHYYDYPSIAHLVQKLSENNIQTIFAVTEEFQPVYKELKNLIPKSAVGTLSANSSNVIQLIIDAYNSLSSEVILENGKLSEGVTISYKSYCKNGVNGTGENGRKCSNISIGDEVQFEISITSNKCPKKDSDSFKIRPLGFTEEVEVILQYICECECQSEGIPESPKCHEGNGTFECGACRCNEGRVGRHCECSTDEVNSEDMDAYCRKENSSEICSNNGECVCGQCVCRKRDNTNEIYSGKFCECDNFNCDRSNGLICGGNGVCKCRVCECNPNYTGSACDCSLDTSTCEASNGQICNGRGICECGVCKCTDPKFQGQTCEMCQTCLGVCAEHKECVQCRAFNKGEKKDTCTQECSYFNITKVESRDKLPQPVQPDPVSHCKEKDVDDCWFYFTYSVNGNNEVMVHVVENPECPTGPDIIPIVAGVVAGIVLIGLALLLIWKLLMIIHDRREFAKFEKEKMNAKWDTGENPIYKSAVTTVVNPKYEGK

First: CNc1cccc(CCOc2ccc(C[C@H](NC(=O)c3sccc3Cl)C(=O)O)nc2)n1 [Example 7, N-[(3-chlorothiophen-2-yl)carbonyl]-3-(5-{2-[6-(methylamino)pyridin-2-yl]ethoxy}pyridin-2-yl)-L-alanine]
Second: CNc1cccc(CCOc2ccc(C[C@H](NC(=O)c3ncc(Cl)cc3Cl)C(=O)O)cc2)n1 [Example 1.24, N-[(3,5-dichloropyridin-2-yl)carbonyl]-O-{2-[6-(methylamino)pyridin-2-yl]ethyl}-L-tyrosine]
The IC50 of the first is 1.7-fold lower: 21 nM for the first, 35 nM for the second. The first is the more potent here.

First: CNc1cccc(CCOc2ccc(C[C@H](NC(=O)c3csc(C(C)C)c3)C(=O)O)cc2)n1 [Example 1.30, N-[(5-isopropyl-3-thienyl)carbonyl]-O-{2-[6-(methylamino)pyridin-2-yl]ethyl}-L-tyrosine]
Second: CNc1cccc(CCOc2ccc(C[C@H](NC(=O)c3ccc(C)s3)C(=O)O)cc2)n1 [Example 1.3, O-{2-[6-(methylamino)pyridin-2-yl]ethyl}-N-[(5-methyl-2-thienyl)carbonyl]-L-tyrosine]
The IC50 of the first is 1.7-fold lower: 132 nM for the first, 229 nM for the second. The first is the more potent here.

Going from `CNc1cccc(CCOc2ccc(C[C@H](NC(=O)c3nc(C)oc3C)C(=O)O)cc2)n1` [Example 1.20, N-[(2,5-dimethyl-1,3-oxazol-4-yl)carbonyl]-O-{2-[6-(methylamino)pyridin-2-yl]ethyl}-L-tyrosine] to `CNc1cccc(CCOc2ccc(C[C@H](NC(=O)c3c(C)n[nH]c3C)C(=O)O)cc2)n1` [Example 1.13, N-[(3,5-dimethyl-1H-pyrazol-4-yl)carbonyl]-O-{2-[6-(methylamino)pyridin-2-yl]ethyl}-L-tyrosine], the IC50 falls from 349 nM to 17 nM (21-fold).

Compared with `Cn1c(C(=O)N[C@@H](Cc2ccc(OCCc3ccc4c(n3)NCCC4)cc2)C(=O)O)c(Cl)c2ccccc21` [Example 5.3, N-[(3-chloro-1-methyl-1H-indol-2-yl)carbonyl]-O-[2-(5,6,7,8-tetrahydro-1,8-naphthyridin-2-yl)ethyl]-L-tyrosine], `O=C(N[C@@H](Cc1ccc(OCCc2ccc3c(n2)NCCC3)cc1)C(=O)O)c1c(Cl)cncc1Cl` [Example 5.5, N-[(3,5-dichloropyridin-4-yl)carbonyl]-O-[2-(5,6,7,8-tetrahydro-1,8-naphthyridin-2-yl)ethyl]-L-tyrosine] is lower in IC50: 94 nM for the first, < 1 nM for the second. The second is the more potent here.

Going from `CNc1cccc(CCOc2ccc(C[C@H](NC(=O)c3occc3C)C(=O)O)cc2)n1` [Example 1.6, O-{2-[6-(methylamino)pyridin-2-yl]ethyl}-N-(3-methyl-2-furoyl)-L-tyrosine] to `CNc1cccc(CCOc2ccc(C[C@H](NC(=O)c3ocnc3C)C(=O)O)cc2)n1` [Example 1.18, O-{2-[6-(methylamino)pyridin-2-yl]ethyl}-N-[(4-methyl-1,3-oxazol-5-yl)carbonyl]-L-tyrosine], the IC50 rises from 151 nM to 250 nM (1.7-fold). The first is the more potent here.

First: CNc1cccc(CCOc2ccc(C[C@H](NC(=O)c3oc4ccccc4c3C)C(=O)O)cc2)n1 [Example 2.5, O-{2-[6-(methylamino)pyridin-2-yl]ethyl}-N-[(3-methyl-1-benzofuran-2-yl)carbonyl]-L-tyrosine]
Second: CNc1cccc(CCOc2ccc(C[C@H](NC(=O)c3ncccc3C)C(=O)O)cc2)n1 [Example 2.7, O-{2-[6-(methylamino)pyridin-2-yl]ethyl}-N-[(3-methylpyridin-2-yl)carbonyl]-L-tyrosine]
The IC50 of the first is 1.6-fold lower: 80 nM for the first, 131 nM for the second. The first is the more potent here.

First: CNc1cccc(CCOc2ccc(C[C@H](NC(=O)c3cnccc3Cl)C(=O)O)cc2)n1 [Example 2.8, N-[(4-chloropyridin-3-yl)carbonyl]-O-{2-[6-(methylamino)pyridin-2-yl]ethyl}-L-tyrosine]
Second: CNc1cccc(CCOc2ccc(C[C@H](NC(=O)c3cnccc3C)C(=O)O)cc2)n1 [Example 1.10, O-{2-[6-(methylamino)pyridin-2-yl]ethyl}-N-[(4-methylpyridin-3-yl)carbonyl]-L-tyrosine]
The IC50 of the first is 2.9-fold lower: 8 nM for the first, 23 nM for the second.

Going from `CCc1sccc1C(=O)N[C@@H](Cc1ccc(OCCc2ccc3c(n2)NCCC3)cc1)C(=O)O` [Example 5.6, N-[(2-ethylthiophen-3-yl)carbonyl]-O-[2-(5,6,7,8-tetrahydro-1,8-naphthyridin-2-yl)ethyl]-L-tyrosine] to `O=C(N[C@@H](Cc1ccc(OCCc2ccc3c(n2)NCCO3)cc1)C(=O)O)c1sccc1Cl` [Example 4.2, N-[(3-chlorothiophen-2-yl)carbonyl]-O-[2-(3,4-dihydro-2H-pyrido[3,2-b][1,4]oxazin-6-yl)ethyl]-L-tyrosine], the IC50 rises from 1 nM to 51 nM (51-fold). The first is the more potent here.

Compared with `O=C(N[C@@H](Cc1ccc(OCCc2ccc3c(n2)NCCO3)cc1)C(=O)O)c1c(Cl)cncc1Cl` [Example 4.1, N-[(3,5-dichloropyridin-4-yl)carbonyl]-O-[2-(3,4-dihydro-2H-pyrido[3,2-b][1,4]oxazin-6-yl)ethyl]-L-tyrosine], `CNc1cccc(CCOc2ccc(C[C@H](NC(=O)c3nc(Cl)ccc3Cl)C(=O)O)cc2)n1` [Example 1.22, N-[(3,6-dichloropyridin-2-yl)carbonyl]-O-{2-[6-(methylamino)pyridin-2-yl]ethyl}-L-tyrosine] is higher in IC50: < 1 nM for the first, 34 nM for the second.

`CNc1cccc(CCOc2ccc(C[C@H](NC(=O)c3cccn3C)C(=O)O)cc2)n1` [Example 1.4, O-{2-[6-(methylamino)pyridin-2-yl]ethyl}-N-[(1-methyl-1H-pyrrol-2-yl)carbonyl]-L-tyrosine] and `CCn1nc(C)cc1C(=O)N[C@@H](Cc1ccc(OCCc2cccc(NC)n2)cc1)C(=O)O` [Example 1.7, N-[(1-ethyl-3-methyl-1H-pyrazol-5-yl)carbonyl]-O-{2-[6-(methylamino)pyridin-2-yl]ethyl}-L-tyrosine] are within 1.5-fold of each other in IC50: 55 nM for the first, 73 nM for the second.

Going from `CNc1cccc(CCOc2ccc(C[C@H](NC(=O)c3c(C)nn(C)c3C)C(=O)O)cc2)n1` [Example 1.14, O-{2-[6-(methylamino)pyridin-2-yl]ethyl}-N-[(1,3,5-trimethyl-1H-pyrazol-4-yl)carbonyl]-L-tyrosine] to `CNc1cccc(CCOc2ccc(C[C@H](NC(=O)c3conc3C)C(=O)O)cc2)n1` [Example 2.2, O-{2-[6-(methylamino)pyridin-2-yl]ethyl}-N-[(3-methylisoxazol-4-yl)carbonyl]-L-tyrosine], the IC50 rises from 13 nM to 23 nM (1.8-fold).

Compared with `CNc1cccc(CCOc2ccc(C[C@H](NC(=O)c3ccc(OC)nc3OC)C(=O)O)cc2)n1` [Example 3.2, N-[(2,6-dimethoxypyridin-3-yl)carbonyl]-O-{2-[6-(methylamino)pyridin-2-yl]ethyl}-L-tyrosine], `CNc1cccc(CCOc2ccc(C[C@H](NC(=O)c3ccc(C)nc3Cl)C(=O)O)cc2)n1` [Example 1.2, N-[(2-chloro-6-methylpyridin-3-yl)carbonyl]-O-{2-[6-(methylamino)pyridin-2-yl]ethyl}-L-tyrosine] is 19-fold lower in IC50: 352 nM for the first, 19 nM for the second.

Compared with `Cc1noc(C)c1C(=O)N[C@@H](Cc1ccc(CCCc2ccc3c(n2)NCCC3)cc1)C(=O)O` [Example 5.4, N-[(3,5-dimethylisoxazol-4-yl)carbonyl]-4-[3-(5,6,7,8-tetrahydro-1,8-naphthyridin-2-yl)propyl]-L-phenylalanine], `CNc1cccc(CCOc2ccc(C[C@H](NC(=O)c3ncccc3Cl)C(=O)O)cc2)n1` [Example 1.23, N-[(3-chloropyridin-2-yl)carbonyl]-O-{2-[6-(methylamino)pyridin-2-yl]ethyl}-L-tyrosine] is 11-fold higher in IC50: 2.2 nM for the first, 24 nM for the second.
